Measured values taken from patent US20050053560A1, “Use of a composition containing extracts of Vitis vinifera and lycopersicum for protecting the skin” (Pharmaton S.A, priority 2003, published 2005).

Tested on: normal human skin fibroblasts of the cell line NHDF
Test: Fluoroscan process: antioxidant capacity of human skin fibroblasts
Assay type: cell-based
Details: NHDF cells, reference substance at 25 μM
Description: For the present cytotoxicity tests and the Fluoroscan process normal human skin fibroblasts of the cell line NHDF were used as the test system, depending on their availability.
The biologically active ingredients (standardised tomato extract, β-Carotene suspension, α-Tocopheryl acetate, standardized grape seed extract, ascorbic acid, selenium yeast) of Seresis® were first investigated in the above-mentioned amounts for possible cytotoxic effects and for their effect on the antioxidant capacity of human skin fibroblasts (NHDF). Apart from the pure mixture of active ingredients the entire contents of an active substance capsule were also used. In addition, a number of additives (oils, etc.) were also included in the test. Using two different in vitro skin models investigations were also carried out to see to what extent the protective effects of the active substances can be visualised. For this, the models were exposed to two different stressors (UV irradiation, activated immune cells).

`Cc1c(C)c2c(c(C)c1O)CC[C@@](C)(CCC[C@H](C)CCC[C@H](C)CCCC(C)C)O2` [α-Tocopherol] was tested, and the “antioxidant potential compared with the carrier control” value was 120%.
